Consider 26 molecules from patent US11590116B2 (THERAVANCE BIOPHARMA R&D IP, LLC, priority 2019, dated 2023).

In assay [1] the test system is TGF-β-stimulated SMAD3 phosphorylation in BEAS-2B cells. Nature of the assay: Cellular ALK5 potency assay, inhibition of TGF-β stimulated pSMAD3 formation in BEAS-2B cells. The following applies: Homo sapiens; inhibition of TGF-β stimulated pSMAD3 formation, BEAS-2B cells; read-out: BEAS2B pIC50 (converted). It is filed as cell-based. In a few lines: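 SMAD3 phosphorylation was measured by AlphaLISA after 30 min TGF-β stimulation (10 ng/mL final) of BEAS-2B cells preincubated 1 h with compound at 37 °C. Results given as pIC50.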

Assay [2] deals with T1, recombinant human ALK5 (TGF-βR1) protein (Homo sapiens, UniProt P36897).
T1 construct: purchased Life Technologies PR9075A
T1 sequence (P36897 34-503): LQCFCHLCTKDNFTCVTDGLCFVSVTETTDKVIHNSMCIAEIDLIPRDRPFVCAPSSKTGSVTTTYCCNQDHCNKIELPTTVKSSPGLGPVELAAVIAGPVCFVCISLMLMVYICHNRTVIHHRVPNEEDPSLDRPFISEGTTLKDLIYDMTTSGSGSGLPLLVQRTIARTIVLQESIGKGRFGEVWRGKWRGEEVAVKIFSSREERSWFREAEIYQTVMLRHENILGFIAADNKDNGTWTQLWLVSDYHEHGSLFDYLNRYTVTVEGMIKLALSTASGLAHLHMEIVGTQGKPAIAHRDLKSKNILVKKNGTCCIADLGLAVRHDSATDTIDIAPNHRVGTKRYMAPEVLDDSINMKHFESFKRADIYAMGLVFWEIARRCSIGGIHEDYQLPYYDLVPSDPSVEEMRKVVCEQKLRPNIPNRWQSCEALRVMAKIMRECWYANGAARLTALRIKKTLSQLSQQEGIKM
Nature of the assay: Biochemical ALK5 (TGF-βR1) assay to measure pKi (LANCE Ultra ULight kinase assay). The following applies: apparent pKi from pIC50 by Cheng-Prusoff, read-out: ALK5 pKi (converted). In a few lines:
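After a 60 min room-temperature preincubation of ALK5 with compound, phosphorylation proceeds 60 min at 37 °C on ATP addition (125 μM as 5× stock). Detection: Eu-labelled phospho-Thr1342 Topo IIα antibody in EDTA buffer, pH 7.0; emission 665 nm.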
A general note: TR-FRET usually uses a lanthanide donor and a delayed reading to cut background.

On to `Cc1cccc(-c2n[nH]cc2-c2ccc3ncc(-c4cnc5n4CCNC5)cc3c2)n1` [Compound 538, 6-[3-(6-methyl-2-pyridyl)-1H-pyrazol-4-yl]-3-(5,6,7,8-tetrahydroimidazo[1,2-a]pyrazin-3-yl)quinoline], for which the IC50 in assay [1] was 25.1 to 158 nM. Further, in assay [2], the Ki was 0.398 to 3.16 nM.
As for `Cc1cccc(-c2n[nH]cc2-c2ccc3ncc(-c4ccnc(C(C)(C)C#N)c4)cc3n2)n1` [Compound 341, 2-methyl-2-[4-[6-[3-(6-methyl-2-pyridyl)-1H-pyrazol-4-yl]-1,5-naphthyridin-3-yl]-2-pyridyl]propanenitrile], in assay [1], the IC50 is under 20 nM. Further, the Ki in assay [2] was under 0.0316 nM.
In the same order, the values of `Cc1cccc(-c2nc3ccccn3c2-c2ccc3ncc(N4CCC(N(C)C)CC4)cc3n2)n1` [Compound 683, N,N-dimethyl-1-[6-[2-(6-methyl-2-pyridyl)imidazo[1,2-a]pyridin-3-yl]-1,5-naphthyridin-3-yl]piperidin-4-amine] are 25.1 to 158 nM and 0.0398 to 0.316 nM.
In the same order, the values of `Cc1cccc(-c2[nH]cnc2-c2ccc3ncc(C4=CCN(C)C4)cc3n2)n1` [Compound 309, 7-(1-methyl-2,5-dihydropyrrol-3-yl)-2-[5-(6-methyl-2-pyridyl)-1H-imidazol-4-yl]-1,5-naphthyridine] are 25.1 to 158 nM and under 0.0316 nM.
Turning to `Cc1cccc(-c2[nH]cnc2-c2ccc3ncc(-c4nccc(C(=O)O[C@H]5CCNC5)n4)cc3c2)n1` [Compound 1073, [(3S)-pyrrolidin-3-yl] 2-[6-[5-(6-methyl-2-pyridyl)-1H-imidazol-4-yl]-3-quinolyl]pyrimidine-4-carboxylate], the IC50 in assay [1] was 1580 to 10000 nM. For the same molecule, in assay [2], the Ki is 0.398 to 3.16 nM.
Turning to `Cc1cccc(-c2[nH]cnc2-c2ccc3ncc(N4CC[C@@H](N)C4)cc3c2)n1` [Compound 13, (3R)-1-[6-[5-(6-methyl-2-pyridyl)-1H-imidazol-4-yl]-3-quinolyl]pyrrolidin-3-amine], the IC50 in assay [1] is under 20 nM. In addition, the Ki in assay [2] is 0.0398 to 0.316 nM.
Regarding `Cc1cccc(-c2[nH]cnc2-c2ccc3ncc(-c4ccc(C(=O)OC[C@H]5CCCCN5)cn4)cc3c2)n1` [Compound 1244, [(2R)-2-piperidyl]methyl 6-[6-[5-(6-methyl-2-pyridyl)-1H-imidazol-4-yl]-3-quinolyl]pyridine-3-carboxylate], in assay [1], the IC50 is 25.1 to 158 nM. For the same molecule, in assay [2], the Ki was 0.0398 to 0.316 nM.
On the same counts, the results for `COC(=O)c1cnc2ccc(-c3nc[nH]c3-c3cccc(C)n3)cc2c1` [Compound 732, methyl 6-[5-(6-methyl-2-pyridyl)-1H-imidazol-4-yl]quinoline-3-carboxylate] are under 20 nM and 0.0398 to 0.316 nM.
For the molecule `COc1[nH]nc(-c2cccc(C)n2)c1-c1ccc2ncc(N3CCC(N4CCN(C)CC4)CC3)cc2n1` [Compound 112, 2-[5-methoxy-3-(6-methyl-2-pyridyl)-1H-pyrazol-4-yl]-7-[4-(4-methylpiperazin-1-yl)-1-piperidyl]-1,5-naphthyridine], in assay [1], the IC50 is 200 to 1260 nM. For the same molecule, in assay [2], the Ki was 0.0398 to 0.316 nM.
Regarding `Cc1cccc(-c2[nH]cnc2-c2ccc3ncc(C4=CCN(C(C)C)C4)cc3n2)n1` [Compound 253, 7-(1-isopropyl-2,5-dihydropyrrol-3-yl)-2-[5-(6-methyl-2-pyridyl)-1H-imidazol-4-yl]-1,5-naphthyridine], the IC50 in assay [1] is 25.1 to 158 nM. Further, in assay [2], the Ki is 0.0398 to 0.316 nM.
In the same order, the values of `Cc1cccc(-c2[nH]cnc2-c2ccc3ncc(-c4nc(C(=O)O[C@H]5CCN(C)C5)cs4)cc3c2)n1` [Compound 747, [(3S)-1-methylpyrrolidin-3-yl] 2-[6-[5-(6-methyl-2-pyridyl)-1H-imidazol-4-yl]-3-quinolyl]thiazole-4-carboxylate] are under 20 nM and 0.0398 to 0.316 nM.
In the same order, the values of `Cc1cccc(-c2[nH]ncc2-c2ccc3ncc(C(=O)OCCN4C[C@@H](C)N[C@@H](C)C4)cc3c2)n1` [Compound 1238, 2-[(3S,5R)-3,5-dimethylpiperazin-1-yl]ethyl 6-[5-(6-methyl-2-pyridyl)-1H-pyrazol-4-yl]quinoline-3-carboxylate] are 25.1 to 158 nM and 0.0398 to 0.316 nM.
On the same counts, the results for `Cc1cccc(-c2[nH]cnc2-c2ccc3ncc(-c4ncc(CN5CCNCC5)s4)cc3c2)n1` [Compound 1055, 2-[6-[5-(6-methyl-2-pyridyl)-1H-imidazol-4-yl]-3-quinolyl]-5-(piperazin-1-ylmethyl)thiazole] are under 20 nM and 0.0398 to 0.316 nM.
Take `Cc1cccc(-c2[nH]cnc2-c2ccc3ncc(C4=CCC(NCC5CCC(=O)O5)CC4)cc3c2)n1` (stereo not shown) [Compound 590, 5-[[[4-[6-[5-(6-methyl-2-pyridyl)-1H-imidazol-4-yl]-3-quinolyl]cyclohex-3-en-1-yl]amino]methyl]tetrahydrofuran-2-one]: the IC50 in assay [1] is 25.1 to 158 nM. Further, the Ki in assay [2] was 0.0398 to 0.316 nM.
On the same counts, the results for `Cc1cccc(-c2n[nH]cc2-c2ccc3ncc(N(C)C)cc3n2)n1` [Compound 59, N,N-dimethyl-6-[3-(6-methyl-2-pyridyl)-1H-pyrazol-4-yl]-1,5-naphthyridin-3-amine] are under 20 nM and 0.0398 to 0.316 nM.
In the case of `Cc1cccc(-c2n[nH]cc2-c2ccc3nccc(NC(=O)CCN4CCOCC4)c3n2)n1` [Compound 841, N-[6-[3-(6-methyl-2-pyridyl)-1H-pyrazol-4-yl]-1,5-naphthyridin-4-yl]-3-morpholino-propanamide], in assay [1], the IC50 was 25.1 to 158 nM. In addition, in assay [2], the Ki is 0.398 to 3.16 nM.
For the molecule `Cc1cccc(-c2n[nH]cc2-c2ccc3ncc(-c4cn5c(n4)CN(CCO)CC5)cc3n2)n1` [Compound 198, 2-[2-[6-[3-(6-methyl-2-pyridyl)-1H-pyrazol-4-yl]-1,5-naphthyridin-3-yl]-6,8-dihydro-5H-imidazo[1,2-a]pyrazin-7-yl]ethanol], in assay [1], the IC50 is 25.1 to 158 nM. Besides, the Ki in assay [2] was 0.0398 to 0.316 nM.
`CNc1cnc2ccc(-c3c[nH]nc3-c3cccc(C)n3)nc2c1` [Compound 106, N-methyl-6-[3-(6-methyl-2-pyridyl)-1H-pyrazol-4-yl]-1,5-naphthyridin-3-amine]: the IC50 in assay [1] is under 20 nM. In assay [2], the Ki was 0.0398 to 0.316 nM.
In the case of `Cc1cccc(-c2[nH]cnc2-c2ccc3ncc(C4=C[C@@H](C)N[C@H](C)C4)cc3c2)n1` [Compound 8, 3-[(2R,6R)-2,6-dimethyl-1,2,3,6-tetrahydropyridin-4-yl]-6-[5-(6-methyl-2-pyridyl)-1H-imidazol-4-yl]quinoline], the IC50 in assay [1] was 25.1 to 158 nM. Moreover, the Ki in assay [2] is 0.0398 to 0.316 nM.
In the same order, the values of `Cc1cccc(-c2[nH]cnc2-c2ccc3ncc(-c4ccc(C(=O)OCCN5CCNCC5)cn4)cc3c2)n1` [Compound 1025, 2-piperazin-1-ylethyl 6-[6-[5-(6-methyl-2-pyridyl)-1H-imidazol-4-yl]-3-quinolyl]pyridine-3-carboxylate] are 25.1 to 158 nM and 0.0398 to 0.316 nM.
On the same counts, the results for `Cc1cccc(-c2[nH]cnc2-c2ccc3nccc(C(=O)O[C@H]4C[C@@H](N)C4)c3c2)n1` [Compound 1042, (3-aminocyclobutyl) 6-[5-(6-methyl-2-pyridyl)-1H-imidazol-4-yl]quinoline-4-carboxylate] are 25.1 to 158 nM and 0.398 to 3.16 nM.
On the same counts, the results for `Cc1nc(-c2n[nH]cc2-c2ccc3ncc(-c4cnn([C@H]5CC[C@@H](N)C5)c4)cc3n2)ccc1F` (racemic) [Compound 96, rac-(1R,3S)-3-[4-[6-[3-(5-fluoro-6-methyl-2-pyridyl)-1H-pyrazol-4-yl]-1,5-naphthyridin-3-yl]pyrazol-1-yl]cyclopentanamine] are 25.1 to 158 nM and under 0.0316 nM.
Take `Cc1cccc(-c2n[nH]cc2-c2ccc3ncc(CNCCCN4CCN(C(C)C)CC4)cc3n2)n1` [Compound 218, 3-(4-isopropylpiperazin-1-yl)-N-[[6-[3-(6-methyl-2-pyridyl)-1H-pyrazol-4-yl]-1,5-naphthyridin-3-yl]methyl]propan-1-amine]: the IC50 in assay [1] is 200 to 1260 nM. Further, the Ki in assay [2] is 0.398 to 3.16 nM.
For the molecule `Cc1cccc(-c2n[nH]cc2-c2ccc3ncc(CN4CC(N5CCOCC5)C4)cc3n2)n1` [Compound 495, 4-[1-[[6-[3-(6-methyl-2-pyridyl)-1H-pyrazol-4-yl]-1,5-naphthyridin-3-yl]methyl]azetidin-3-yl]morpholine], in assay [1], the IC50 was 200 to 1260 nM. Moreover, the Ki in assay [2] was 3.98 to 31.6 nM.
In the case of `Cc1cccc(-c2[nH]cnc2-c2ccc3ncc(C(=O)OC[C@@H]4CCCN4)cc3c2)n1` [Compound 762, [(2S)-pyrrolidin-2-yl]methyl 6-[5-(6-methyl-2-pyridyl)-1H-imidazol-4-yl]quinoline-3-carboxylate], the IC50 in assay [1] is 25.1 to 158 nM. The Ki in assay [2] was 0.398 to 3.16 nM.
`Cc1cccc(-c2[nH]ncc2-c2ccc3nccc(C(=O)OC4CCNCC4)c3c2)n1` [Compound 1210, 4-piperidyl 6-[5-(6-methyl-2-pyridyl)-1H-pyrazol-4-yl]quinoline-4-carboxylate]: the IC50 in assay [1] was 25.1 to 158 nM. For the same molecule, the Ki in assay [2] is 0.0398 to 0.316 nM.
